From ChEMBL document CHEMBL5465560, “Selectivity Literature for EUbOPEN Chemogenomic Library” (2024) come the findings set out here.

Assay [1] addresses RAC-beta serine/threonine-protein kinase (Homo sapiens) (UniProt P31751). Put plainly: Selectivity interaction (KinomeScan (DiscoverX)) EUB0000607a AKT2. The conditions noted are these: at 10 µM.
Assay [2] concerns Epidermal growth factor receptor (Homo sapiens), P00533 [UNDEFINED MUTATION]. Conditions: at 10 µM.
Assay [3] addresses Serine/threonine-protein kinase Chk2 (Homo sapiens) (UniProt O96017). Conditions: at 10 µM.
Assay [4] addresses Serine/threonine-protein kinase VRK2 (Homo sapiens) (UniProt Q86Y07). Put plainly: Selectivity interaction (KinomeScan (DiscoverX)) EUB0000666a VRK2. Conditions: at 10 µM.
Assay [5] addresses Cyclin-dependent kinase-like 3 (Homo sapiens) (UniProt Q8IVW4). Put plainly: Selectivity interaction (KinomeScan (DiscoverX)) EUB0000229b CDKL3. Conditions: at 10 µM.
The target of assay [6] is T1, Serine/threonine-protein kinase Nek5 (Homo sapiens) (UniProt Q6P3R8).
T1 sequence (whole entry): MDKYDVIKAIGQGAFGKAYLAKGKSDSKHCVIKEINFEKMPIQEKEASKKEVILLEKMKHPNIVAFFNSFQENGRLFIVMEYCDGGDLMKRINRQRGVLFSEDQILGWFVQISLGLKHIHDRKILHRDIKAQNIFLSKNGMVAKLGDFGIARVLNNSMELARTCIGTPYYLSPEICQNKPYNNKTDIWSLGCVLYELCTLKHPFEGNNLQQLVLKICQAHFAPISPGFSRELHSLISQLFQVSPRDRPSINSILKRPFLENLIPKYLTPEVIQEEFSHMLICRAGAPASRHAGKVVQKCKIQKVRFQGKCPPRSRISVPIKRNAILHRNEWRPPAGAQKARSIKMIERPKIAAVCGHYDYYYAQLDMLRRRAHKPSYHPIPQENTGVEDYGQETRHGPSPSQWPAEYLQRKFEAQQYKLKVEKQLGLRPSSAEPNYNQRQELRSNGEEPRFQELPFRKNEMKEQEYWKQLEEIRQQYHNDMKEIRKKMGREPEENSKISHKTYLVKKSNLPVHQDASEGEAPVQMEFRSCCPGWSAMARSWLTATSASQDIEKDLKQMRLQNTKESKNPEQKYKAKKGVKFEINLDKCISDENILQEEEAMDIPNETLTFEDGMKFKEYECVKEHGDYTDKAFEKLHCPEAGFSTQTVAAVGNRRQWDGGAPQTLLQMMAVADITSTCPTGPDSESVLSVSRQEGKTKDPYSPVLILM
Put plainly: Selectivity interaction (KinomeScan (DiscoverX)) EUB0000229b NEK5. Conditions: at 10 µM.

For assay [7], the target named is T2, Mitogen-activated protein kinase kinase kinase 12 (Homo sapiens) (UniProt Q12852).
T2 sequence (whole entry): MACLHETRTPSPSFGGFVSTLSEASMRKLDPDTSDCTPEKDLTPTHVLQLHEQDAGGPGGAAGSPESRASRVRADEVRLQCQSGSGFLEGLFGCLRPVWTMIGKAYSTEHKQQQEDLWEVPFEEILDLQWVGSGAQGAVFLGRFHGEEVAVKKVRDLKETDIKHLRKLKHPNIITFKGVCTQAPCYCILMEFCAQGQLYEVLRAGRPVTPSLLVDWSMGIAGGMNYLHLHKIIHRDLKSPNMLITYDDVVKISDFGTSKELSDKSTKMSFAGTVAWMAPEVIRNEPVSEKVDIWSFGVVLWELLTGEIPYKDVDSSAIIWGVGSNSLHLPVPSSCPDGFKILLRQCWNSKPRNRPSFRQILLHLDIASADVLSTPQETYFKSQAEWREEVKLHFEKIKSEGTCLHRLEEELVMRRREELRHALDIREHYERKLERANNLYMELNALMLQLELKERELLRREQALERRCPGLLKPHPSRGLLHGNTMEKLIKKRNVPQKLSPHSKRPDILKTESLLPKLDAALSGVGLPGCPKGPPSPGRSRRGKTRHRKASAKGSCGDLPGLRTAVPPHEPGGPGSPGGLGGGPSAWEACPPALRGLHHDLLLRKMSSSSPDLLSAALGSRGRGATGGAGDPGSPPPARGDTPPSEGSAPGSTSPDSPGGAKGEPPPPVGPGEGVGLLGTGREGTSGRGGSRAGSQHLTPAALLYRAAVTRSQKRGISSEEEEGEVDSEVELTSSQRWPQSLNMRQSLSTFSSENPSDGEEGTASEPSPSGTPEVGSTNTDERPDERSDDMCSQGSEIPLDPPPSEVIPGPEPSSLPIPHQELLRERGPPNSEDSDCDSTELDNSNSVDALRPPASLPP
Put plainly: Selectivity interaction (KinomeScan (DiscoverX)) EUB0001079a MAP3K12. The conditions noted are these: at 1 µM.

The target of assay [8] is Cyclin-dependent kinase 16 (Homo sapiens) (UniProt Q00536). Put plainly: Selectivity interaction (ActivX KiNativ screen (kinase selectivity in THP-1 cell lysates)) EUB0000639a CDK16. Type of assay: subcellular. The conditions noted are these: lysate, at 0.2 µM.
Assay [9] deals with Serine/threonine-protein kinase MRCK beta (Homo sapiens) (UniProt Q9Y5S2). The conditions noted are these: at 10 µM.
For assay [10], the target named is T3, Interleukin-1 receptor-associated kinase 4 (Homo sapiens) (UniProt Q9NWZ3).
T3 sequence (whole entry): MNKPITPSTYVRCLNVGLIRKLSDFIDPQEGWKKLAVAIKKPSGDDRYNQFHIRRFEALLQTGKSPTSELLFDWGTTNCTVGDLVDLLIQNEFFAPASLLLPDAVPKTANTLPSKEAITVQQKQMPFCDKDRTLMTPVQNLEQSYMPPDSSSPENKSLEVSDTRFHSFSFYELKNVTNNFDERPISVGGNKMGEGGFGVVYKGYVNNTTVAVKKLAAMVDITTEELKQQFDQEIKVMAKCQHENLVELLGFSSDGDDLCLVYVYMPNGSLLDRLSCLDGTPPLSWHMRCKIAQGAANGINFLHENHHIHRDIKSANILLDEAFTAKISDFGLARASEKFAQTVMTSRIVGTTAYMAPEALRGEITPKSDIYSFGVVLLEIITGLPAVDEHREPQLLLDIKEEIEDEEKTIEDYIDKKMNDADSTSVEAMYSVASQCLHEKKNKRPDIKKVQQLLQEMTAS
Put plainly: Selectivity interaction (ProQinase) EUB0000171b IRAK4.

The target of assay [11] is Substance-P receptor (Homo sapiens) (UniProt P25103). Put plainly: Selectivity interaction (Eurofins CEREP Diversity Profile (receptors and ion channels)) EUB0000279b TACR1. The conditions noted are these: at 10 µM.
The target of assay [12] is Melatonin receptor type 1A (Homo sapiens) (UniProt P48039). Put plainly: Selectivity interaction (Eurofins CEREP Diversity Profile (receptors and ion channels)) EUB0000279b MTNR1A. Conditions: at 10 µM.
Assay [13] has as its target Death-associated protein kinase 1 (Homo sapiens, UniProt P53355). Put plainly: Selectivity interaction (KinomeScan (DiscoverX)) EUB0000618a DAPK1. The conditions noted are these: at 10 µM.
Assay [14] deals with Tyrosine-protein kinase receptor UFO (Homo sapiens) (UniProt P30530). Put plainly: Selectivity interaction (KinomeScan (DiscoverX)) EUB0000595a AXL. The conditions noted are these: at 10 µM.
Chain of Tyrosine-protein kinase receptor UFO (Homo sapiens) (P30530 whole entry): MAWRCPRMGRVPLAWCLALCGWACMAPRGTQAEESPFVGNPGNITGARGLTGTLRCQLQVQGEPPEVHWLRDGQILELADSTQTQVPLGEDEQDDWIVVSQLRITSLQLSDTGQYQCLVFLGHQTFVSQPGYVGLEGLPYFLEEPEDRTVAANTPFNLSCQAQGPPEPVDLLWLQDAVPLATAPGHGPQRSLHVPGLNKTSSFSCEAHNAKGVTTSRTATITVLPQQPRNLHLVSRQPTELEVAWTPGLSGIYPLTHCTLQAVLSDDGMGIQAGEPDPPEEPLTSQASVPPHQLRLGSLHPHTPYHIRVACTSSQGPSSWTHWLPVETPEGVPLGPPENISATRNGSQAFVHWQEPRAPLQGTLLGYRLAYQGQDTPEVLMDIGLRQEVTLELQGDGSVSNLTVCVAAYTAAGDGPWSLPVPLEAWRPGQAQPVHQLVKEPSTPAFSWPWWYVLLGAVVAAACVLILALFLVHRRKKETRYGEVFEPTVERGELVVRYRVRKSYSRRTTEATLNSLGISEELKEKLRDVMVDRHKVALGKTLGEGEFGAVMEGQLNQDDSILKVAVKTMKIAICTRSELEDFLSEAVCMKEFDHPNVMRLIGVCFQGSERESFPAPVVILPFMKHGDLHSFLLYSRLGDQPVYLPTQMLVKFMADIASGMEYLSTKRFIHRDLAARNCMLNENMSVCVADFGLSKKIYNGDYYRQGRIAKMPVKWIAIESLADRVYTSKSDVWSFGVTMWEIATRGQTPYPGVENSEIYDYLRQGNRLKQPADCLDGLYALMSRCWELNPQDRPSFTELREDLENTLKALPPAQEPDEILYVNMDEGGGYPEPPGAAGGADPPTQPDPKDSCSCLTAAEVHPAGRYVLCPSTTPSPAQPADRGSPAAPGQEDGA

Chain of Substance-P receptor (Homo sapiens) (P25103 whole entry): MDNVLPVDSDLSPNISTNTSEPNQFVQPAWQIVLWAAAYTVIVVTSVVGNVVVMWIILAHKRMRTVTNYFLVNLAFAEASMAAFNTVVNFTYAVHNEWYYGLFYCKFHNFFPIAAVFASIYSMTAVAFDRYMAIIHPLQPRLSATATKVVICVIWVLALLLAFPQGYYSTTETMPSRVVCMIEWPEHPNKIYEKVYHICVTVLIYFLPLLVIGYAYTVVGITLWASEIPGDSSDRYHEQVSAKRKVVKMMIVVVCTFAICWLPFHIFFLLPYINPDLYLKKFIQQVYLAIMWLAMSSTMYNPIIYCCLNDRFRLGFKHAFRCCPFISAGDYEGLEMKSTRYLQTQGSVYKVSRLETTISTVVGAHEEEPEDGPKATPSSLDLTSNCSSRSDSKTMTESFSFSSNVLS
Chain of Serine/threonine-protein kinase MRCK beta (Homo sapiens) (Q9Y5S2 whole entry): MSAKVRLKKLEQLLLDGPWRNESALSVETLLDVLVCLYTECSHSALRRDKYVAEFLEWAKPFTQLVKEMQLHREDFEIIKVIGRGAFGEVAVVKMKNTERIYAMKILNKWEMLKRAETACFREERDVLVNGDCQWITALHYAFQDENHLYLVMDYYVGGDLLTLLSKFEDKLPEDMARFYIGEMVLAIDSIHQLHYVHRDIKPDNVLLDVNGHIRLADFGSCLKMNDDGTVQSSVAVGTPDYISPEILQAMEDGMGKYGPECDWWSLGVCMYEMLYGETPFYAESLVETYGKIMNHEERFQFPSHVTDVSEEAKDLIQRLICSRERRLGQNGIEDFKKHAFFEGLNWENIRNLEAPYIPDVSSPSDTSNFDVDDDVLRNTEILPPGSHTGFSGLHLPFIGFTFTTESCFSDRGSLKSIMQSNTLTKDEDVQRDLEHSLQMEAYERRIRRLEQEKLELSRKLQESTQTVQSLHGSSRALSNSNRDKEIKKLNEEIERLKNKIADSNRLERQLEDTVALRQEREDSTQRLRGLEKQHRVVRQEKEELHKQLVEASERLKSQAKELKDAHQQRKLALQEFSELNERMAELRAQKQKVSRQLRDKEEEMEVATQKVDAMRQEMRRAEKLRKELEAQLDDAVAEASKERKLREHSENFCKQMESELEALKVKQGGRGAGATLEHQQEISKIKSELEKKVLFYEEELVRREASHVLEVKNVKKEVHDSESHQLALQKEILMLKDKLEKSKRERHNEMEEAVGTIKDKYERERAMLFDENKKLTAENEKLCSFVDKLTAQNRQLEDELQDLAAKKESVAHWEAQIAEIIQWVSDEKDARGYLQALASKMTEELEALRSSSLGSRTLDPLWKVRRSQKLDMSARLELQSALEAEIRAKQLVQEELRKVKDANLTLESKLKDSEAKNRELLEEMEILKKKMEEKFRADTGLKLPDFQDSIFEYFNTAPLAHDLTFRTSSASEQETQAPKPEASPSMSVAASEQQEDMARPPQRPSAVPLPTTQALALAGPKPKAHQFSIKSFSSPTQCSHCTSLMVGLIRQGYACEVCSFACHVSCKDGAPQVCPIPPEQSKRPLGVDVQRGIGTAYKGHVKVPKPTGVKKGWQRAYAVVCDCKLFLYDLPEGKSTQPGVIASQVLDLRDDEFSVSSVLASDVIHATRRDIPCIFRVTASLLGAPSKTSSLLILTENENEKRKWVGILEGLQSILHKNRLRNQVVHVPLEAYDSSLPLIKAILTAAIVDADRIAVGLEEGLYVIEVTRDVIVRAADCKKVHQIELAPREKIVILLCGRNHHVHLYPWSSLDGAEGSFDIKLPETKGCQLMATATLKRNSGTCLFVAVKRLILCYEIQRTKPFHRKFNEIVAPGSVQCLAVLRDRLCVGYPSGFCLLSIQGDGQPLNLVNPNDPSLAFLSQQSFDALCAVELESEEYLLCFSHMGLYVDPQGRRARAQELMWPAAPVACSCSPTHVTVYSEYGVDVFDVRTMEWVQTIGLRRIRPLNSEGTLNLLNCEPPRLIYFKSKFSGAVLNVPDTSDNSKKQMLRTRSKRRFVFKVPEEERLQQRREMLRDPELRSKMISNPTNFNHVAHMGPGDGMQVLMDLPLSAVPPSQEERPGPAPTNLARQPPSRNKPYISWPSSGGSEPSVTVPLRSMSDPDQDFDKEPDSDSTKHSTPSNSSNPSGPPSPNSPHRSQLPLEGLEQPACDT
Chain of Serine/threonine-protein kinase Chk2 (Homo sapiens) (O96017 whole entry): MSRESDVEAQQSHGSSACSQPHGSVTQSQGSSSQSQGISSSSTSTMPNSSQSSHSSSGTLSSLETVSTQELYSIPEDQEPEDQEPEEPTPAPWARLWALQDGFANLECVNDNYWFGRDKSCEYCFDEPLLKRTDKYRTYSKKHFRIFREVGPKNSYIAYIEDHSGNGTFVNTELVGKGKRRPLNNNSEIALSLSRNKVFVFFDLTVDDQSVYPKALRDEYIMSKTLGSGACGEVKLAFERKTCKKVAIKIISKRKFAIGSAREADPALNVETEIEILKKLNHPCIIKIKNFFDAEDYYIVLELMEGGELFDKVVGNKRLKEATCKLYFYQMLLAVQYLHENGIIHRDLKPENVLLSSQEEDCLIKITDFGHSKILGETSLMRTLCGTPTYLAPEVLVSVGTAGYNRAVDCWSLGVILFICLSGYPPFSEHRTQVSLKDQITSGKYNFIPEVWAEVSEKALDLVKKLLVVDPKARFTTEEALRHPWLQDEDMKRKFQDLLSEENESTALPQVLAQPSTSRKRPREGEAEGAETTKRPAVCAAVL
Chain of RAC-beta serine/threonine-protein kinase (Homo sapiens) (P31751 whole entry): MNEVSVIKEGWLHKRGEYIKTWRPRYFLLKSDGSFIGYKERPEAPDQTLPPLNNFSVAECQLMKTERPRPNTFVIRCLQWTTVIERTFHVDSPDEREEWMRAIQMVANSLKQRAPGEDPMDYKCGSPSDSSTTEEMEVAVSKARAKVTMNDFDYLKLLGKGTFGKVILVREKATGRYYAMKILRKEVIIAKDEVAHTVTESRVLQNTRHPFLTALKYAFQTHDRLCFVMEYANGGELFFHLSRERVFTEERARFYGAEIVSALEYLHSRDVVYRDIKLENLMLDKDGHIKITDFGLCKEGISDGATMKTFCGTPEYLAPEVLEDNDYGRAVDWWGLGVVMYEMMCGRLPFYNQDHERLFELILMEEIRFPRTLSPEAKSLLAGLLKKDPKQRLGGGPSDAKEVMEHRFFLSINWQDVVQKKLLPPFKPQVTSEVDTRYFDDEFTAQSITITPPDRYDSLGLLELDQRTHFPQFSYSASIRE
Chain of Melatonin receptor type 1A (Homo sapiens) (P48039 whole entry): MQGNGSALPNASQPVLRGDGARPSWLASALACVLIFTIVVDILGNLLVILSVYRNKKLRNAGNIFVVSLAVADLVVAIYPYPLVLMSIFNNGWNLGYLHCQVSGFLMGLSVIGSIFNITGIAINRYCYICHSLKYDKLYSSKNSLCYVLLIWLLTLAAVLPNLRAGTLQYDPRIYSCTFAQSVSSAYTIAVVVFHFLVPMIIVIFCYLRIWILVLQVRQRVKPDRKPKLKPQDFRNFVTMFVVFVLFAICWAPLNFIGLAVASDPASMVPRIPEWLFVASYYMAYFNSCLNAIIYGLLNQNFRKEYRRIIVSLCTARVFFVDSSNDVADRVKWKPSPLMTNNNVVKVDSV
Chain of Cyclin-dependent kinase 16 (Homo sapiens) (Q00536 whole entry): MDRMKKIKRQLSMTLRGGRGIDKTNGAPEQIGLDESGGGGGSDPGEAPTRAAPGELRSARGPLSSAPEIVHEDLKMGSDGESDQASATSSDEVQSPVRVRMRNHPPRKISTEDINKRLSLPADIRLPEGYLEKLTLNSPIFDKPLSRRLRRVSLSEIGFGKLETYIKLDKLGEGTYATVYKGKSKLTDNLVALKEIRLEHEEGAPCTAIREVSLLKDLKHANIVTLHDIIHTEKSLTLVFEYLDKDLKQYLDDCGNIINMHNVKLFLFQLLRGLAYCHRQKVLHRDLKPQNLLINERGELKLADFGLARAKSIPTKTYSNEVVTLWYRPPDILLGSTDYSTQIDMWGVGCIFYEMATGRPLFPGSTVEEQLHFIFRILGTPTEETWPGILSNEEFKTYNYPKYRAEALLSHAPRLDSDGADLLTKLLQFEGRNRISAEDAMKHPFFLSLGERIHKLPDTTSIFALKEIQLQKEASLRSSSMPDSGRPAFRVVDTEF

On to `CNC(=O)Nc1ccc(-c2nc(N3CC4CCC(C3)O4)c3cnn(C4CCC5(CC4)OCCO5)c3n2)cc1`, for which the % of control in [1] was 100%.
Regarding `Cc1cc([C@@H](C)Nc2ccccc2C(=O)O)c2nc(N3CCOCC3)cc(=O)n2c1` [AZD-6482], the % of control in assay [2] and in assay [3] was 100% each time.
In turn, `O=C(NOC[C@H](O)CO)c1ccc(F)c(F)c1Nc1ccc(I)cc1F` showed a % of control in assay [4] of 100%.
Turning to `COc1cc(N(C)c2ccnc3ccc(C(F)(F)F)cc23)cc(OC)c1OC`, the % binding in [5] amounted to 88%; in assay [6], 93%.
Consider `Nc1cnc(N2CCc3cc(S(=O)(=O)Nc4c(F)cc(Cl)cc4F)cc(N4CCCC4=O)c32)nc1` [TP-020n], for which, in assay [7], the % of control came to 100%.
On to `CC[C@@H]1[C@H](F)C(=O)N[C@@H]1COc1nccc2cc(C(N)=O)c(OC)cc12` [ZIMLOVISERTIB], for which, in assay [8], the % of inhibition is -0.8%.
Regarding `CCN(CC)CCCCNc1ncc2cc(-c3cc(OC)cc(OC)c3)c(NC(=O)NC(C)(C)C)nc2n1`, the % of control in [9] came out at 100%.
For the molecule `C=CC(=O)Nc1cccc(C(=O)Nc2ccc(Nc3cc(-c4[nH]c(SC)nc4C)ccn3)cc2)c1`, the results for the % of control in assay [10] (at 1 µM) and in [10] (at 5 µM) were 85% and 56%, respectively.
On to `CC(=O)c1cc(-c2ccccc2OCC2CC2)c2ncccn12`, for which the % of control is 72% in assay [11] and 46% in assay [12].
In assay [13], `O[C@H]1CC[C@H](Nc2ncc3nc(Nc4c(F)cc(F)cc4F)n([C@H]4CCOC4)c3n2)CC1` displayed a % of control of 95%.
`COCC(=O)NC/C=C/c1ccc2ncnc(Nc3ccc(Oc4ccc(C)nc4)c(C)c3)c2c1` [CP-724714] yielded a % of control in assay [14] of 68%.
